In ChEMBL document CHEMBL1201862, “PubChem BioAssay data set” (2004):
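Exposure lasted 48 hours, with cells grown in 96-well plates and compounds tested at five concentrations. At the GI50, growth is halved.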 The source made the active and inactive calls. Cut-off read from the data, not from the text of the source: active = GI50 up to about 1.1 µM and inactive = higher.

Assays:
Assay in all cases: inhibition of tumour cell growth, NCI panel, 48 h
KM12 = test system: KM12
UO-31 = test system: UO-31
OVCAR-5 = test system: OVCAR-5
A549 = test system: A549
SK-MEL-5 = test system: SK-MEL-5
SK-MEL-28 = test system: SK-MEL-28
HCT-116 = test system: HCT-116
NCI-H460 = test system: NCI-H460
EKVX = test system: EKVX
NCI-H23 = test system: NCI-H23
IGROV-1 = test system: IGROV-1
SNB-19 = test system: SNB-19
SF-268 = test system: SF-268
HCC 2998 = test system: HCC 2998
MDA-MB-231 = test system: MDA-MB-231
K562 = test system: K562
HT-29 = test system: HT-29
U-251 = test system: U-251
HOP-92 = test system: HOP-92

Structure (SMILES)	GI50 (KM12)	GI50 (UO-31)	GI50 (OVCAR-5)	GI50 (A549)	GI50 (SK-MEL-5)	GI50 (SK-MEL-28)	GI50 (HCT-116)	GI50 (NCI-H460)	GI50 (EKVX)	GI50 (NCI-H23)	GI50 (IGROV-1)	GI50 (SNB-19)	GI50 (SF-268)	GI50 (HCC 2998)	GI50 (MDA-MB-231)	GI50 (K562)	GI50 (HT-29)	GI50 (U-251)	GI50 (HOP-92)
CC(C)=C[C@H]1CCC2(OCCO2)[C@]1(C)CO	> 100 µM (inactive)	> 100 µM (inactive)	> 100 µM (inactive)	> 100 µM (inactive)	> 100 µM (inactive)	> 100 µM (inactive)	> 100 µM (inactive)	> 100 µM (inactive)	58.7 µM (inactive)	> 100 µM (inactive)	> 100 µM (inactive)	> 100 µM (inactive)	> 100 µM (inactive)	> 100 µM (inactive)	> 100 µM (inactive)				
Cc1ccccc1C(=O)Oc1ccc(O)cc1	> 100 µM (inactive)	> 100 µM (inactive)	> 100 µM (inactive)	> 100 µM (inactive)	> 100 µM (inactive)		> 100 µM (inactive)	> 100 µM (inactive)	> 100 µM (inactive)	> 100 µM (inactive)	> 100 µM (inactive)	> 100 µM (inactive)	> 100 µM (inactive)	> 100 µM (inactive)		> 100 µM (inactive)	> 100 µM (inactive)	> 100 µM (inactive)	
Oc1ccc(Cc2cc(Cc3ccc(O)cc3)cc(Cc3ccc(O)cc3)c2)cc1	> 50 µM (inactive)	> 50 µM (inactive)	> 50 µM (inactive)	> 50 µM (inactive)		> 50 µM (inactive)	> 50 µM (inactive)	> 50 µM (inactive)	> 50 µM (inactive)		> 50 µM (inactive)	> 50 µM (inactive)	> 50 µM (inactive)	> 50 µM (inactive)	> 50 µM (inactive)	> 50 µM (inactive)	> 50 µM (inactive)	> 50 µM (inactive)	
Cn1c(=O)nc2n(-c3ccc(Cl)cc3)c3ccc(Cl)cc3nc-2c1=O	14.5 µM (inactive)	18 µM (inactive)	16.1 µM (inactive)	5.75 µM (inactive)	1.04 µM (active)	9.23 µM (inactive)	8.55 µM (inactive)	5.98 µM (inactive)	12.9 µM (inactive)	2.36 µM (inactive)	19.5 µM (inactive)	> 10 µM (inactive)	6.78 µM (inactive)	7.76 µM (inactive)		5.02 µM (inactive)	8.79 µM (inactive)	1.98 µM (inactive)	7.05 µM (inactive)
COC(=O)c1ccccc1/C=C1\Cc2ccc(C)c(C)c2C1=O	> 100 µM (inactive)	> 100 µM (inactive)	> 100 µM (inactive)	> 100 µM (inactive)	> 100 µM (inactive)	> 100 µM (inactive)	> 100 µM (inactive)	> 100 µM (inactive)	> 100 µM (inactive)	> 100 µM (inactive)	> 100 µM (inactive)	44.5 µM (inactive)	54.5 µM (inactive)	> 100 µM (inactive)		> 100 µM (inactive)	> 100 µM (inactive)	48.6 µM (inactive)	34.2 µM (inactive)
COc1cc(COC(=O)N(CC(=O)O)c2ccccc2)c([N+](=O)[O-])cc1OC	> 100 µM (inactive)	> 100 µM (inactive)	> 100 µM (inactive)	> 100 µM (inactive)	> 100 µM (inactive)	> 100 µM (inactive)		> 100 µM (inactive)	> 100 µM (inactive)	> 100 µM (inactive)	> 100 µM (inactive)	> 100 µM (inactive)	> 100 µM (inactive)	> 100 µM (inactive)		> 100 µM (inactive)	> 100 µM (inactive)	> 100 µM (inactive)	> 100 µM (inactive)
CC(C(O)c1ccccc1)N(C)/N=N/c1nc2c([nH]1)c(=O)n(C)c(=O)n2C (stereo not drawn)	46.2 µM (inactive)	> 100 µM (inactive)	> 100 µM (inactive)	50.8 µM (inactive)	66.8 µM (inactive)	> 100 µM (inactive)	> 100 µM (inactive)	25.2 µM (inactive)	88.1 µM (inactive)	60.8 µM (inactive)	35.2 µM (inactive)	> 100 µM (inactive)	> 100 µM (inactive)	39.9 µM (inactive)	92.3 µM (inactive)	91 µM (inactive)	39.6 µM (inactive)	> 100 µM (inactive)	
Cc1cc2nc(N)n[n+]([O-])c2cc1C	> 100 µM (inactive)	> 100 µM (inactive)	> 100 µM (inactive)	> 100 µM (inactive)	> 100 µM (inactive)	> 100 µM (inactive)	> 100 µM (inactive)		> 100 µM (inactive)	> 100 µM (inactive)	> 100 µM (inactive)	> 100 µM (inactive)	> 100 µM (inactive)	> 100 µM (inactive)	> 100 µM (inactive)	> 100 µM (inactive)	> 100 µM (inactive)	> 100 µM (inactive)	
Cc1cc(N(CCC#N)CCC#N)ccc1C(/N=N\c1ccc([N+](=O)[O-])cc1)=N\NC(=O)c1cc(Cl)ccc1O	27.7 µM (inactive)	13.8 µM (inactive)	> 100 µM (inactive)	38.6 µM (inactive)	30.6 µM (inactive)		25.5 µM (inactive)	25.1 µM (inactive)	24.3 µM (inactive)	15.6 µM (inactive)	24.2 µM (inactive)	34.7 µM (inactive)	19.9 µM (inactive)	16.4 µM (inactive)	30.3 µM (inactive)	35.2 µM (inactive)	29.4 µM (inactive)	46.1 µM (inactive)	
CCOC(=O)C(C(=O)c1ccccc1)=C1NCCN1	> 100 µM (inactive)	> 100 µM (inactive)	> 100 µM (inactive)	> 100 µM (inactive)	> 100 µM (inactive)	> 100 µM (inactive)	> 100 µM (inactive)	> 100 µM (inactive)	> 100 µM (inactive)	> 100 µM (inactive)	> 100 µM (inactive)	> 100 µM (inactive)	> 100 µM (inactive)	> 100 µM (inactive)		> 100 µM (inactive)	> 100 µM (inactive)	> 100 µM (inactive)	
O=C1c2ccccc2C(=O)N1NC1=NCCN1	> 100 µM (inactive)		> 100 µM (inactive)	> 100 µM (inactive)	> 100 µM (inactive)	> 100 µM (inactive)	> 100 µM (inactive)	> 100 µM (inactive)	> 100 µM (inactive)	> 100 µM (inactive)	> 100 µM (inactive)	> 100 µM (inactive)	> 100 µM (inactive)	> 100 µM (inactive)	> 100 µM (inactive)	> 100 µM (inactive)	> 100 µM (inactive)	> 100 µM (inactive)	
COc1ccc(-n2c(C)nc3ccc(NC(=S)Nc4ccccc4)cc3c2=O)cc1	72.3 µM (inactive)	> 100 µM (inactive)	> 100 µM (inactive)		37.4 µM (inactive)	96.2 µM (inactive)	39.2 µM (inactive)	12.4 µM (inactive)	65.2 µM (inactive)	52.7 µM (inactive)	> 100 µM (inactive)	> 100 µM (inactive)	> 100 µM (inactive)	26.2 µM (inactive)	> 100 µM (inactive)	51.6 µM (inactive)	62.4 µM (inactive)	> 100 µM (inactive)	
